Laboratory results published in paper PMC9490236, “Accurate de novo design of membrane-traversing macrocycles” (Cell, 2022).
Where a SMILES comes first, the peptide text is derived from it. [ ]: non-standard residue; d: D form. NMeF = CN[C@@H](Cc1ccccc1)C(=O)O; NMeL = CN[C@@H](CC(C)C)C(=O)O; dNMeL = CN[C@H](CC(C)C)C(=O)O; NMeV = CN[C@H](C(=O)O)C(C)C; NMeA = CN[C@@H](C)C(=O)O

Legend:
Caco-2 cells = assay: Caco-2 permeability assay (apical to basolateral); format: in vitro ADME, human; parameters: Caco_R1 / Caco_R3: unit not given here
Method: (§1) Human colon adenocarcinoma-derived Caco-2 cell line was used as a model system to investigate the intestinal epithelial permeability of our designs. Caco-2 cells were propagated in T125 flasks (Corning, Merck) using Dulbecco’s modified Eagle medium supplemented with 10% (v/v) fetal bovine serum, 1% (v/v) nonessential amino acids, and 1% (v/v) penicillin-streptomycin (Gibco, Thermo Fisher Scientific) at 37°C in an atmosphere of 5% CO2. Cells were subcultured when they reached 80% confluence.
(§2) The permeability of designed peptides was evaluated using an accelerated 6-day Caco-2 permeability assay as described previously ([Sevin et al., 2013]). In brief, cells were seeded into the 12-well Transwell plates with 0.4 μm polyester membrane inserts (Corning, Merck) to give 4.0 × 10^5 cells/well. The complete assay medium contained Dulbecco’s modified Eagle medium supplemented with 10% (v/v) fetal bovine serum, 1% (v/v) nonessential amino acids, and 0.4 μg/mL puromycin. The medium in plates was renewed every second day. The inserts received 0.75 mL of assay medium in the upper compartment (apical chamber) and 1.5 mL in the bottom compartment (basolateral chamber) individually. After 6-day incubation or until the cells formed monolayers, the medium in the apical and basolateral chamber was replaced with peptide solutions at 50 μM or Hanks' Balanced Salt Solution (HBSS), separately. The plates were incubated for 90 min at 37°C on an orbital shaker (60 rpm). The peptide concentration of solutions in the apical and basolateral compartments was subsequently quantified using LC-MS (Qstar Elite, AB Sciex Australia) to evaluate the transmembrane flux of peptides in the apical-to-basolateral direction. Membrane integrity of the Caco-2 cell monolayer was validated using trans-epithelial electrical resistance (TEER) measurements before and after the assays. Atenolol and quinidine were included as negative and positive controls in all assays.

[1] = Caco-2 permeability assay (apical to basolateral); format: in vitro ADME, human; parameters: Caco_R1 / Caco_R3: unit not given here; details: Caco-2, average of 3 replicates; read-out: Caco_Papp_Average
Method: as §1, §2

[2] = PAMPA
in vitro = details: PAMPA, PAMPA_Papp_Avg

Compound | Caco_R1 (Caco-2 cells; Caco-2 Papp, replicate 1) | Caco_R3 (Caco-2 cells; Caco-2 Papp, replicate 3) | Papp A→B [1] [×10⁻⁶ cm/s] | PAMPA_R1 [2] | PAMPA_R3 [2] | Papp (in vitro) [×10⁻⁶ cm/s] | other results
CC[C@H](C)[C@@H]1NC(=O)[C@@H](CC(C)C)NC(=O)[C@H](CC(C)C)N(C)C(=O)[C@H](Cc2ccccc2)NC(=O)CN(C)C(=O)[C@@H]2CCCN2C(=O)[C@H](C(C)C)NC(=O)[C@H](Cc2ccccc2)N(C)C(=O)[C@H]2CCCN2C(=O)[C@H](CC(C)C)NC1=O (single isomer, unassigned) [Design D10.1.p2, DLEU ILE LEU DPRO *PHE VAL PRO *GLY PHE *LEU] | 2.58 | 4.01 | 3.6 | – | – | – | –
CC(C)C[C@@H]1NC(=O)[C@@H]2CCCN2C(=O)[C@@H](Cc2ccccc2)NC(=O)[C@H](C)N(C)C(=O)[C@H](CC(C)C)NC(=O)[C@H](CC(C)C)N(C)C(=O)[C@@H](C)NC(=O)[C@@H](CC(C)C)NC(=O)[C@@H]2CCCN2C(=O)[C@@H](Cc2ccccc2)NC1=O (single isomer, unassigned) [Design D10.2.p2, LEU DPHE PRO DLEU DALA *LEU LEU *ALA DPHE PRO] | – | – | – | 4.31E-07 | 4.68E-07 | – | PAMPA_Papp_Avg [2]: 3.60E-07; Caco_Papp_Average (Caco-2 cells; Caco-2): 0; Caco_R1 (Caco-2 cells; Caco-2): 0; Caco_R3 (Caco-2 cells; Caco-2): 0
CC[C@@H](C)[C@H]1NC(=O)[C@H](CC(C)C)NC(=O)[C@@H](CC(C)C)NC(=O)[C@H](C(C)C)NC(=O)[C@@H](Cc2ccccc2)N(C)C(=O)[C@@H]2CCCN2C(=O)[C@@H](CC(C)C)NC(=O)[C@H](CC(C)C)NC(=O)[C@H]2CCCN2C1=O (single isomer, unassigned) [Design D9.4.p1, LEU DILE DPRO LEU DLEU PRO *DPHE VAL DLEU] | 3.39 | 6 | 3.76 | – | – | – | –
CC(C)C[C@H]1C(=O)N2CCC[C@@H]2C(=O)N(C)[C@@H](C(C)C)C(=O)N[C@@H](C(C)C)C(=O)N2CCC[C@H]2C(=O)N2CCC[C@@H]2C(=O)N[C@@H](C)C(=O)N[C@H](C(C)C)C(=O)N(C)[C@@H](CC(C)C)C(=O)N[C@@H](C)C(=O)N1C [Design D10.5, PRO DPRO ALA DVAL *LEU ALA *LEU DPRO *VAL VAL] (cyclo(A[NMeL][dP][NMeV]VP[dP]A[dV][NMeL])) | 1.31 | 0.08 | 0.497 | – | – | – | –
CC[C@@H](C)[C@H]1NC(=O)[C@H](CC(C)C)NC(=O)[C@@H](CC(C)C)NC(=O)[C@H](C(C)C)NC(=O)[C@@H](Cc2ccccc2)N(C)C(=O)[C@@H]2CCCN2C(=O)[C@@H](CC(C)C)NC(=O)[C@H](CC(C)C)NC(=O)[C@H]2CCCN2C1=O (single isomer, unassigned) [Design D9.4.p2, LEU DILE DPRO LEU DLEU PRO *DPHE VAL DLEU] | 3.27 | 2.03 | – | – | – | – | –
CC(C)C[C@@H]1NC(=O)[C@@H](C(C)C)NC(=O)[C@H](Cc2ccccc2)N(C)C(=O)[C@H]2CCCN2C(=O)[C@H]2CCCN2C(=O)[C@@H](C)NC(=O)[C@H](Cc2ccccc2)N(C)C(=O)[C@H]2CCCN2C(=O)[C@@H](C(C)C)NC(=O)[C@@H]2CCCN2C1=O [Design D10.4, *PHE DVAL LEU PRO DVAL DPRO *PHE DALA DPRO DPRO] (cyclo(LP[dV][dP][NMeF][dA][dP][dP][NMeF][dV])) | 1.39 | 0.49 | 0.627 | – | – | – | –
CC[C@H](C)[C@@H]1NC(=O)[C@@H](C(C)C)NC(=O)[C@@H]2CCCN2C(=O)[C@@H](CC(C)C)N(C)C(=O)[C@@H](C(C)C)NC(=O)[C@H](CC(C)C)N(C)C(=O)[C@H]2CCCN2C(=O)[C@@H](C)NC(=O)[C@H](Cc2ccccc2)N(C)C(=O)[C@H]2CCCN2C1=O (single isomer, unassigned) [Design D10.3.p2, ILE DPRO *PHE DALA DPRO *LEU DVAL *DLEU PRO DVAL] | 4.05 | 2.63 | 4.43 | – | – | – | –
CC[C@H](C)[C@@H]1NC(=O)[C@H](Cc2ccccc2)N(C)C(=O)[C@H](CC(C)C)N(C)C(=O)[C@@H](C(C)C)NC(=O)[C@@H](C)NC(=O)[C@@H]2CCCN2C(=O)[C@@H](CC(C)C)NC(=O)[C@@H]2CCCN2C(=O)[C@H](C)NC1=O (single isomer, unassigned) [Design D9.6.p2] | 3.08 | 7.44 | – | – | – | – | –
CC[C@H](C)[C@@H]1NC(=O)[C@H](Cc2ccccc2)N(C)C(=O)[C@H](CC(C)C)N(C)C(=O)[C@@H](C(C)C)NC(=O)[C@@H](C)NC(=O)[C@@H]2CCCN2C(=O)[C@@H](CC(C)C)NC(=O)[C@@H]2CCCN2C(=O)[C@H](C)NC1=O (single isomer, unassigned) [Design D9.6.p1] | 4.759 | 4.47 | 4.51 | – | – | – | –
CC(C)C[C@@H]1C(=O)N[C@@H](C(C)C)C(=O)N[C@@H](C)C(=O)N2CCC[C@H]2C(=O)N2CCC[C@@H]2C(=O)N[C@@H](C(C)C)C(=O)N[C@@H](C)C(=O)N(C)[C@@H](CC(C)C)C(=O)N1C [Design D8.22, ALA PRO DPRO VAL ALA *LEU *DLEU VAL] (cyclo(A[NMeL][dNMeL]VAP[dP]V)) | – | – | – | 2.34E-07 | 1.57E-07 | 0.215 | –
CC[C@H](C)[C@@H]1NC(=O)[C@H]2CCCN2C(=O)[C@@H]2CCCN2C(=O)[C@H](C(C)C)NC(=O)[C@@H](C(C)C)NC(=O)[C@H](Cc2ccccc2)N(C)C(=O)[C@H]2CCCN2C(=O)[C@@H](CC(C)C)N(C)C(=O)[C@@H](CC(C)C)NC1=O [Design D9.42, DPRO ILE DLEU *DLEU DPRO *PHE DVAL VAL PRO] (cyclo(I[dL][dNMeL][dP][NMeF][dV]VP[dP])) | – | – | – | 1.18E-06 | 1.07E-06 | 1.12 | –
CC(C)[C@@H]1NC(=O)[C@@H]2CCCN2C(=O)[C@@H]2CCCN2C(=O)[C@@H](Cc2ccccc2)NC(=O)[C@@H]2CCCN2C(=O)[C@@H](Cc2ccccc2)NC1=O [Design D6.5, PRO PRO VAL DPHE PRO DPHE] (cyclo(PPV[dF]P[dF])) | – | – | – | 3.17e-06 cm/s | 3.12e-06 cm/s | 2.41 | –
CC[C@H](C)[C@@H]1NC(=O)[C@H](C(C)C)N(C)C(=O)[C@H]2CCCN2C(=O)[C@H]([C@@H](C)CC)NC(=O)[C@@H](CC(C)C)N(C)C(=O)[C@@H](C)NC(=O)[C@@H]2CCCN2C(=O)[C@H]2CCCN2C(=O)[C@H](CC(C)C)NC(=O)[C@@H](Cc2ccccc2)NC(=O)[C@H](CC(C)C)NC(=O)[C@H]2CCCN2C1=O [Design D12.3, DPRO *VAL ILE DPRO LEU DPHE LEU DPRO PRO DALA *DLEU ILE] (cyclo([dA][dNMeL]I[dP][NMeV]I[dP]L[dF]L[dP]P)) | – | – | – | 7.65E-07 | 9.01E-07 | 0.789 | –
CC(C)C[C@@H]1C(=O)N[C@@H](C)C(=O)N[C@H](CC(C)C)C(=O)N(C)[C@@H](C)C(=O)N2CCC[C@@H]2C(=O)N2CCC[C@@H]2C(=O)N2CCC[C@@H]2C(=O)N2CCC[C@H]2C(=O)N[C@H](C(C)C)C(=O)N(C)[C@@H](CC(C)C)C(=O)N1C [Design D10.28, DLEU *ALA DPRO DPRO DPRO PRO DVAL *LEU *DLEU ALA] (cyclo([dV][NMeL][dNMeL]A[dL][NMeA][dP][dP][dP]P)) | – | – | – | 1.56E-07 | 2.34E-07 | 0.184 | –
